Test results from ChEMBL document CHEMBL1201862, “PubChem BioAssay data set” (2004).
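How tested: cells in 96-well plates exposed to compound for 48 hours at five concentrations. The concentration for 50% growth inhibition is given as GI50.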 Calls of active or inactive are those of the source. Cut-off read from the data, not from the text of the source: active = GI50 up to about 1.1 µM and inactive = higher.

How the values were obtained:
Test in all cases: growth of human tumour cells (NCI), 48 h
HCC 2998 = system: HCC 2998
CAKI-1 = system: CAKI-1
ACHN = system: ACHN
HT-29 = system: HT-29
RXF 393 = system: RXF 393
DU-145 = system: DU-145
NCI-H522 = system: NCI-H522
SK-MEL-28 = system: SK-MEL-28
SR = system: SR
UACC-257 = system: UACC-257
K562 = system: K562
HOP-92 = system: HOP-92
HCT-116 = system: HCT-116
OVCAR-3 = system: OVCAR-3
IGROV-1 = system: IGROV-1
SN12C = system: SN12C
NCI-H226 = system: NCI-H226
EKVX = system: EKVX
SK-MEL-5 = system: SK-MEL-5
HCT-15 = system: HCT-15

**Q.** Which results are given for Cc1ccc2occ/c(=N\Nc3ccccc3)c2c1?
**A.** GI50 (HCC 2998): > 100 µM (inactive); GI50 (CAKI-1): 54 µM (inactive); GI50 (ACHN): > 100 µM (inactive); GI50 (HT-29): 23.9 µM (inactive); GI50 (RXF 393): 21.8 µM (inactive); GI50 (DU-145): 37.8 µM (inactive); GI50 (NCI-H522): 84.7 µM (inactive); GI50 (SK-MEL-28): 62.2 µM (inactive); GI50 (SR): 37.8 µM (inactive); GI50 (UACC-257): > 100 µM (inactive); GI50 (K562): 25.2 µM (inactive); GI50 (HOP-92): 19.5 µM (inactive); GI50 (HCT-116): 47.2 µM (inactive); GI50 (OVCAR-3): 60.1 µM (inactive); GI50 (IGROV-1): 7.83 µM (inactive); GI50 (SN12C): > 100 µM (inactive); GI50 (NCI-H226): 29.9 µM (inactive); GI50 (EKVX): 18.6 µM (inactive); GI50 (SK-MEL-5): 41.5 µM (inactive); GI50 (HCT-15): 39.9 µM

**Q.** How did the GI50 (HCC 2998) turn out when N/C(=N/O)c1cn(C2OC(CO)C(O)C2O)c2ncnc(NO)c12 (stereo not drawn) was run?
**A.** 0.147 µM (active)

**Q.** What about the GI50 (ACHN) of the same molecule?
**A.** 0.0189 µM (active)

**Q.** What about the GI50 (HT-29) of the same molecule?
**A.** 0.461 µM (active)

**Q.** What about the GI50 (RXF 393) of the same molecule?
**A.** 0.356 µM (active)

**Q.** What about the GI50 (DU-145) of the same molecule?
**A.** 0.112 µM (active)

**Q.** What about the GI50 (NCI-H522) of the same molecule?
**A.** 0.0226 µM (active)

**Q.** What about the GI50 (SK-MEL-28) of the same molecule?
**A.** 0.476 µM (active)

**Q.** What about the GI50 (SR) of the same molecule?
**A.** 0.0356 µM (active)

**Q.** What about the GI50 (UACC-257) of the same molecule?
**A.** 0.224 µM (active)

**Q.** And the GI50 (K562)?
**A.** 0.184 µM (active)

**Q.** What about the GI50 (HOP-92) of the same molecule?
**A.** 1.03 µM (active)

**Q.** What about the GI50 (HCT-116) of the same molecule?
**A.** 0.0337 µM (active)

**Q.** What about the GI50 (OVCAR-3) of the same molecule?
**A.** 0.255 µM (active)

**Q.** And the GI50 (IGROV-1)?
**A.** 0.451 µM (active)

**Q.** What about the GI50 (SN12C) of the same molecule?
**A.** 0.0593 µM (active)

**Q.** What about the GI50 (NCI-H226) of the same molecule?
**A.** 0.34 µM (active)

**Q.** What about the GI50 (EKVX) of the same molecule?
**A.** 0.422 µM (active)

**Q.** What about the GI50 (SK-MEL-5) of the same molecule?
**A.** 0.151 µM (active)

**Q.** And the GI50 (HCT-15)?
**A.** 0.184 µM

**Q.** How did the GI50 (HCC 2998) turn out when COC(=O)C1(O)C(c2ccccc2)=NC2(C)CCCC21 (stereo not drawn) was run?
**A.** > 100 µM (inactive)

**Q.** What about the GI50 (CAKI-1) of the same molecule?
**A.** > 100 µM (inactive)

**Q.** And the GI50 (HT-29)?
**A.** > 100 µM (inactive)

**Q.** What about the GI50 (RXF 393) of the same molecule?
**A.** > 100 µM (inactive)

**Q.** And the GI50 (DU-145)?
**A.** > 100 µM (inactive)

**Q.** What about the GI50 (NCI-H522) of the same molecule?
**A.** > 100 µM (inactive)

**Q.** And the GI50 (SK-MEL-28)?
**A.** > 100 µM (inactive)

**Q.** What about the GI50 (SR) of the same molecule?
**A.** > 100 µM (inactive)

**Q.** And the GI50 (UACC-257)?
**A.** > 100 µM (inactive)

**Q.** And the GI50 (K562)?
**A.** > 100 µM (inactive)

**Q.** What about the GI50 (HOP-92) of the same molecule?
**A.** > 100 µM (inactive)

**Q.** What about the GI50 (HCT-116) of the same molecule?
**A.** > 100 µM (inactive)

**Q.** What about the GI50 (OVCAR-3) of the same molecule?
**A.** > 100 µM (inactive)

**Q.** What about the GI50 (IGROV-1) of the same molecule?
**A.** > 100 µM (inactive)

**Q.** And the GI50 (SN12C)?
**A.** > 100 µM (inactive)

**Q.** What about the GI50 (NCI-H226) of the same molecule?
**A.** > 100 µM (inactive)

**Q.** What about the GI50 (SK-MEL-5) of the same molecule?
**A.** > 100 µM (inactive)

**Q.** What about the GI50 (HCT-15) of the same molecule?
**A.** > 100 µM

**Q.** Cc1c(CNc2ccc(C(=O)NC(CC(=O)O)C(=O)O)cc2)ccc2nc(N)nc(N)c12 (stereo not drawn) was tested. Which GI50 (HCC 2998) did it give?
**A.** < 0.01 µM (active)

**Q.** What about the GI50 (ACHN) of the same molecule?
**A.** < 0.01 µM (active)

**Q.** And the GI50 (HT-29)?
**A.** < 0.01 µM (active)

**Q.** And the GI50 (RXF 393)?
**A.** 5.04 µM (inactive)

**Q.** What about the GI50 (DU-145) of the same molecule?
**A.** < 0.01 µM (active)

**Q.** And the GI50 (NCI-H522)?
**A.** < 0.018 µM (active)

**Q.** And the GI50 (SK-MEL-28)?
**A.** 1.7 µM (inactive)

**Q.** And the GI50 (SR)?
**A.** < 0.0296 µM (active)

**Q.** What about the GI50 (UACC-257) of the same molecule?
**A.** 0.605 µM (active)

**Q.** And the GI50 (K562)?
**A.** 0.0101 µM (active)

**Q.** What about the GI50 (HOP-92) of the same molecule?
**A.** 1.1 µM (active)

**Q.** And the GI50 (HCT-116)?
**A.** < 0.01 µM (active)

**Q.** What about the GI50 (IGROV-1) of the same molecule?
**A.** < 0.01 µM (active)

**Q.** What about the GI50 (SN12C) of the same molecule?
**A.** 0.0499 µM (active)

**Q.** What about the GI50 (NCI-H226) of the same molecule?
**A.** > 100 µM (inactive)

**Q.** And the GI50 (EKVX)?
**A.** > 100 µM (inactive)

**Q.** And the GI50 (SK-MEL-5)?
**A.** 0.021 µM (active)

**Q.** What about the GI50 (HCT-15) of the same molecule?
**A.** < 0.01 µM

**Q.** For O=C(Cn1c(=O)oc2ccc(C(=O)c3ccc(F)cc3)cc21)c1ccc([N+](=O)[O-])cc1, which GI50 (HCC 2998) is on record?
**A.** 15.9 µM (inactive)

**Q.** What about the GI50 (CAKI-1) of the same molecule?
**A.** 47.6 µM (inactive)

**Q.** What about the GI50 (ACHN) of the same molecule?
**A.** 35 µM (inactive)

**Q.** What about the GI50 (HT-29) of the same molecule?
**A.** 39 µM (inactive)

**Q.** And the GI50 (RXF 393)?
**A.** 27.3 µM (inactive)

**Q.** And the GI50 (DU-145)?
**A.** 46.7 µM (inactive)

**Q.** What about the GI50 (NCI-H522) of the same molecule?
**A.** 18.8 µM (inactive)

**Q.** What about the GI50 (SK-MEL-28) of the same molecule?
**A.** 45.3 µM (inactive)

**Q.** What about the GI50 (SR) of the same molecule?
**A.** 12.6 µM (inactive)

**Q.** And the GI50 (UACC-257)?
**A.** 60.3 µM (inactive)

**Q.** What about the GI50 (K562) of the same molecule?
**A.** 28.3 µM (inactive)

**Q.** What about the GI50 (HOP-92) of the same molecule?
**A.** 49.3 µM (inactive)

**Q.** What about the GI50 (HCT-116) of the same molecule?
**A.** 29.6 µM (inactive)

**Q.** What about the GI50 (IGROV-1) of the same molecule?
**A.** 24.3 µM (inactive)

**Q.** What about the GI50 (SN12C) of the same molecule?
**A.** 60.3 µM (inactive)

**Q.** What about the GI50 (NCI-H226) of the same molecule?
**A.** 27.3 µM (inactive)

**Q.** And the GI50 (SK-MEL-5)?
**A.** 15.7 µM (inactive)

**Q.** And the GI50 (HCT-15)?
**A.** 20.9 µM
